# System: peripheral blood mononuclear cells (PBMC)
# Assay: In Vitro Screening in PBMC - G-CSF protein expression
# Assay type: cell-based, human
# Conditions: PBMC Donor 1; 500 ng mRNA, 0.4 uL Lipofectamine 2000
# Description: (§1) The supernatant was harvested and stored frozen until analyzed by ELISA to determine the G-CSF protein expression, and the induction of the cytokines interferon-alpha (IFN-α) and tumor necrosis factor alpha (TNF-α).
row,Compound,G-CSF Protein Expression
1,O=c1ccn([C@@H]2O[C@H](CO)[C@@H](O)[C@H]2O)c(=S)[nH]1 [2-thiouridine],932 pg/mL
2,O=c1[nH]c(=S)ccn1[C@@H]1O[C@H](CO)[C@@H](O)[C@H]1O [4-thiouridine],5 pg/mL
3,COc1cn([C@@H]2O[C@H](CO)[C@@H](O)[C@H]2O)c(=O)[nH]c1=O [5-methoxyuridine],"2,964 pg/ml"

# Same assay, conditions: PBMC Donor 2; 500 ng mRNA
row,Compound,G-CSF Protein Expression
1,O=c1ccn([C@@H]2O[C@H](CO)[C@@H](O)[C@H]2O)c(=S)[nH]1 [2-thiouridine],"1,000 pg/ml"
2,O=c1[nH]c(=S)ccn1[C@@H]1O[C@H](CO)[C@@H](O)[C@H]1O [4-thiouridine],391 pg/mL
3,COc1cn([C@@H]2O[C@H](CO)[C@@H](O)[C@H]2O)c(=O)[nH]c1=O [5-methoxyuridine],"1,832 pg/ml"

# Same assay, conditions: PBMC Donor 3; 500 ng mRNA
row,Compound,G-CSF Protein Expression
1,O=c1ccn([C@@H]2O[C@H](CO)[C@@H](O)[C@H]2O)c(=S)[nH]1 [2-thiouridine],600 pg/mL
2,O=c1[nH]c(=S)ccn1[C@@H]1O[C@H](CO)[C@@H](O)[C@H]1O [4-thiouridine],218 pg/mL
3,COc1cn([C@@H]2O[C@H](CO)[C@@H](O)[C@H]2O)c(=O)[nH]c1=O [5-methoxyuridine],"1,800 pg/ml"

# Same assay, conditions: Table 47 naturally occurring; background about 110 pg/ml
row,Compound,Protein (G-CSF; PBMC)
1,O=c1[nH]cc([C@@H]2O[C@H](CO)[C@@H](O)[C@H]2O)c(=O)[nH]1 [pseudouridine (Y)],"++ (“++” means greater than 1,500 pg/ml G-CSF)"
2,Cn1cc([C@@H]2O[C@H](CO)[C@@H](O)[C@H]2O)c(=O)[nH]c1=O [1-methylpseudouridine (m^1Y)],"++++ (“++++” means greater than 6,000 pg/ml G-CSF)"
3,N^6-methyladenosine (m^6A),+/− (“+/−” means 150-300 pg/ml G-CSF)
4,O=c1ccn([C@@H]2O[C@H](CO)[C@@H](O)[C@H]2O)c(=S)[nH]1 [2-thiouridine (s^2U)],+ (“+” means greater than 300 pg/ml G-CSF)
5,O=c1[nH]c(=S)ccn1[C@@H]1O[C@H](CO)[C@@H](O)[C@H]1O [4-thiouridine (s^4U)],+/− (“+/−” means 150-300 pg/ml G-CSF)

# Same assay, conditions: Table 48 non-naturally occurring; background about 110 pg/ml
row,Compound,Protein (G-CSF; PBMC)
1,COC(=O)C=Cc1cn([C@@H]2O[C@H](CO)[C@@H](O)[C@H]2O)c(=O)[nH]c1=O [5-(2-carbomethoxyvinyl) Uridine],+/− (“+/−” means 150-300 pg/ml G-CSF)
2,5-Br-Uridine [Compound 5-Br-Uridine],+ (“+” means greater than 300 pg/ml G-CSF)

# System: peripheral blood mononuclear cells (PBMC), interferon-alpha (IFN-α)
# Assay: not given
# Assay type: cell-based, human
# Conditions: Table 47 naturally occurring; IFN-alpha, background about 70 pg/ml
# Description: as §1
row,Compound,Cytokines (G-CSF; PBMC)
1,O=c1[nH]cc([C@@H]2O[C@H](CO)[C@@H](O)[C@H]2O)c(=O)[nH]1 [pseudouridine (Y)],+ (“+” means greater than 100 pg/ml IFN-alpha)
2,Cn1cc([C@@H]2O[C@H](CO)[C@@H](O)[C@H]2O)c(=O)[nH]c1=O [1-methylpseudouridine (m^1Y)],− (“−” means less than 100 pg/ml)
3,N^6-methyladenosine (m^6A),"++++ (“++++” means greater than 1,000 pg/ml interferon-alpha (IFN-alpha))"
4,O=c1ccn([C@@H]2O[C@H](CO)[C@@H](O)[C@H]2O)c(=S)[nH]1 [2-thiouridine (s^2U)],+ (“+” means greater than 100 pg/ml IFN-alpha)
5,O=c1[nH]c(=S)ccn1[C@@H]1O[C@H](CO)[C@@H](O)[C@H]1O [4-thiouridine (s^4U)],++ (“++” means greater than 300 pg/ml IFN-alpha)

# Same assay, conditions: Table 48 non-naturally occurring; IFN-alpha, background about 70 pg/ml
row,Compound,Cytokines (G-CSF; PBMC)
1,COC(=O)C=Cc1cn([C@@H]2O[C@H](CO)[C@@H](O)[C@H]2O)c(=O)[nH]c1=O [5-(2-carbomethoxyvinyl) Uridine],− (“−” means less than 100 pg/ml)
2,5-Br-Uridine [Compound 5-Br-Uridine],+ (“+” means greater than 100 pg/ml IFN-alpha)

# System: HeLa cells
# Assay: In vitro Screening in HeLa Cells - luciferase (RLU)
# Assay type: cell-based, human
# Parameters: key to Protein (Luc; HeLa): the protein production of HeLa is judged by “+,” “+/−” and “−”; the protein production of HeLa is judged by “+,” “+/−” and “−”; the protein production of HeLa is judged by “+,” “+/−” and “−”
# Conditions: Table 47 naturally occurring; *** = production seen in cell free translations
# Method: The 2′Fluoro-modified mRNA were then transfected into HeLa cells to assess protein production in a cell context and the same mRNA were also assessed in a cell-free rabbit reticulocyte system. A control of unmodified luciferase (natural luciferase) was used for both transcription experiments, a control of untreated and mock transfected (Lipofectamine 2000 alone) were also analyzed for the HeLa transfection and a control of no RNA was analyzed for the rabbit reticulysates.
# For the HeLa transfection experiments, the day before transfection, 20,000 HeLa cells (ATCC no. CCL-2; Manassas, Va.) were harvested by treatment with Trypsin-EDTA solution (LifeTechnologies, Grand Island, N.Y.) and seeded in a total volume of 100 ul EMEM medium (supplemented with 10% FCS and 1× Glutamax) per well in a 96-well cell culture plate (Corning, Manassas, Va.). The cells were grown at […] in 5% CO2 atmosphere overnight. […] Lipofectamine 2000 (LifeTechnologies, Grand Island, N.Y.) was used as transfection reagent and 0.2 ul were diluted in 10 ul final volume of OPTI-MEM. After […] of incubation at room temperature, both solutions were combined and incubated an additional 15 minute at room temperature. Then the 20 ul combined solution was added to the 100 ul cell culture medium containing the HeLa cells and incubated at room temperature. After 18 to 22 hours of incubation cells expressing luciferase were lysed with 100 ul of Passive Lysis Buffer (Promega, Madison, Wis.) according to manufacturer instructions. Aliquots of the lysates were transferred to white opaque polystyrene 96-well plates (Corning, Manassas, Va.) and combined with 100 ul complete luciferase assay solution (Promega, Madison, Wis.). The lysate volumes were adjusted or diluted until no more than 2 mio relative light units (RLU) per well were detected for the strongest signal producing samples and the RLUs for each chemistry tested are shown in Table 42. The plate reader was a BioTek Synergy H1 (BioTek, Winooski, Vt.). The background signal of the plates without reagent was about 200 relative light units per well.
# To evaluate using of 2′fluoro-modified mRNA in combination with other modification a series of mRNA were transcribed using either wild-type T7 polymerase (non-fluoro-containing compounds) or using mutant T7 polymerases (fluyoro-containing compounds) as described in Example 86. All modified mRNA were tested by in vitro transfection in HeLa cells.
# After 18 to 22 hours of incubation cells expressing luciferase were lysed with 100 ul of Passive Lysis Buffer (Promega, Madison, Wis.) according to manufacturer instructions. Aliquots of the lysates were transferred to white opaque polystyrene 96-well plates (Corning, Manassas, Va.) and combined with 100 ul complete luciferase assay solution (Promega, Madison, Wis.). The lysate volumes were adjusted or diluted until no more than 2 mio relative light units (RLU) per well were detected for the strongest signal producing samples and the RLUs for each chemistry tested are shown in Table 44. The plate reader was a BioTek Synergy H1 (BioTek, Winooski, Vt.). The background signal of the plates without reagent was about 200 relative light units per well.
row,Compound,Protein (Luc; HeLa)
1,O=c1[nH]cc([C@@H]2O[C@H](CO)[C@@H](O)[C@H]2O)c(=O)[nH]1 [pseudouridine (Y)],+
2,Cn1cc([C@@H]2O[C@H](CO)[C@@H](O)[C@H]2O)c(=O)[nH]c1=O [1-methylpseudouridine (m^1Y)],+
3,N^6-methyladenosine (m^6A),−
4,O=c1ccn([C@@H]2O[C@H](CO)[C@@H](O)[C@H]2O)c(=S)[nH]1 [2-thiouridine (s^2U)],−

# Same assay, conditions: Table 48 non-naturally occurring; ** mutant T7 polymerase
row,Compound,Protein (Luc; HeLa)
1,COC(=O)C=Cc1cn([C@@H]2O[C@H](CO)[C@@H](O)[C@H]2O)c(=O)[nH]c1=O [5-(2-carbomethoxyvinyl) Uridine],−
2,5-Br-Uridine [Compound 5-Br-Uridine],+

# Target: wild-type T7 polymerase (Escherichia phage T7, UniProt P00573)
# Sequence (P00573 whole entry): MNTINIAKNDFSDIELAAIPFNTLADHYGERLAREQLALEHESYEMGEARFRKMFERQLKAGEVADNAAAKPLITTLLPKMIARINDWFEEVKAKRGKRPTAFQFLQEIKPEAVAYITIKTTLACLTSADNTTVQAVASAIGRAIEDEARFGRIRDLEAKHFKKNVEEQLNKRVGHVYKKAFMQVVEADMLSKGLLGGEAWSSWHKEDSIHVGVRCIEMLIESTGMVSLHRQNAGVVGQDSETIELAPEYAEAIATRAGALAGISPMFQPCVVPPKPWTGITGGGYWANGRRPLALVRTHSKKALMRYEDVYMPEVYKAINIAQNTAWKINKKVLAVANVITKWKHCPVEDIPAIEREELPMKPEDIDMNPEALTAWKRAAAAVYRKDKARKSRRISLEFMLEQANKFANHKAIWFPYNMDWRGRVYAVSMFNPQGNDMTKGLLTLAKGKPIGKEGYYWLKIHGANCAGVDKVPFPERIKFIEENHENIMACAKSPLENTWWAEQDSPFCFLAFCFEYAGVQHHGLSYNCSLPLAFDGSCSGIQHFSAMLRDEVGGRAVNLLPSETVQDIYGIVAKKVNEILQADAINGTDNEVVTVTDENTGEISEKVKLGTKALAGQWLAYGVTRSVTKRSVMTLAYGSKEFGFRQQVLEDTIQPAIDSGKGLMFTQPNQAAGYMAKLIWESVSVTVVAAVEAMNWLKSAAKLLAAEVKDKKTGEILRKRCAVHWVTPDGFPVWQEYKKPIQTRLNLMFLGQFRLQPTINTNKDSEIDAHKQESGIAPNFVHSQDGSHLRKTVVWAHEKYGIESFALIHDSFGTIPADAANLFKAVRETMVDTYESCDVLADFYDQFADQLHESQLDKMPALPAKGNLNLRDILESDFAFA
# Assay: In Vitro Transcription with Wild-Type T7 Polymerase (transcription and capping yield)
# Conditions: Table 47 naturally occurring; G-CSF mRNA in vitro transcription, Pass/Fail
# Method: The luciferase and G-CSF modified mRNA were also subjected to an enzymatic capping reaction and each modified mRNA capping reaction was evaluated for yield by spectrophometic measurement (OD260) and correct size assessed using bioanalyzer.
row,Compound,IVT (G-CSF)
1,O=c1[nH]cc([C@@H]2O[C@H](CO)[C@@H](O)[C@H]2O)c(=O)[nH]1 [pseudouridine (Y)],Pass
2,Cn1cc([C@@H]2O[C@H](CO)[C@@H](O)[C@H]2O)c(=O)[nH]c1=O [1-methylpseudouridine (m^1Y)],Pass
3,N^6-methyladenosine (m^6A),Pass
4,O=c1ccn([C@@H]2O[C@H](CO)[C@@H](O)[C@H]2O)c(=S)[nH]1 [2-thiouridine (s^2U)],Pass
5,O=c1[nH]c(=S)ccn1[C@@H]1O[C@H](CO)[C@@H](O)[C@H]1O [4-thiouridine (s^4U)],Pass

# Same assay, conditions: Table 47 naturally occurring; luciferase mRNA in vitro transcription, Pass/Fail
row,Compound,IVT (Luc)
1,O=c1[nH]cc([C@@H]2O[C@H](CO)[C@@H](O)[C@H]2O)c(=O)[nH]1 [pseudouridine (Y)],Pass
2,Cn1cc([C@@H]2O[C@H](CO)[C@@H](O)[C@H]2O)c(=O)[nH]c1=O [1-methylpseudouridine (m^1Y)],Pass
3,N^6-methyladenosine (m^6A),Pass
4,O=c1ccn([C@@H]2O[C@H](CO)[C@@H](O)[C@H]2O)c(=S)[nH]1 [2-thiouridine (s^2U)],Pass
5,O=c1[nH]c(=S)ccn1[C@@H]1O[C@H](CO)[C@@H](O)[C@H]1O [4-thiouridine (s^4U)],Fail

# Same assay, conditions: Table 48 non-naturally occurring; G-CSF mRNA in vitro transcription, Pass/Fail
row,Compound,"IVT (G-CSF), first result"
1,COC(=O)C=Cc1cn([C@@H]2O[C@H](CO)[C@@H](O)[C@H]2O)c(=O)[nH]c1=O [5-(2-carbomethoxyvinyl) Uridine],Pass
2,5-Br-Uridine [Compound 5-Br-Uridine],Pass

# Same assay, conditions: Table 48 non-naturally occurring; luciferase mRNA in vitro transcription, Pass/Fail
row,Compound,"IVT (Luc), first result"
1,COC(=O)C=Cc1cn([C@@H]2O[C@H](CO)[C@@H](O)[C@H]2O)c(=O)[nH]c1=O [5-(2-carbomethoxyvinyl) Uridine],Pass
2,5-Br-Uridine [Compound 5-Br-Uridine],Pass

# System: HeLa cells
# Assay: G-CSF expression in HeLa cells (ELISA)
# Assay type: cell-based, human
# Parameters: key to Protein (G-CSF; HeLa): the protein production of HeLa is judged by “+,” “+/−” and “−”; the protein production of HeLa is judged by “+,” “+/−” and “−”; the protein production of HeLa is judged by “+,” “+/−” and “−”
# Conditions: Table 47 naturally occurring; *** = production seen in cell free translations
# Method: (§2) To assess the activity of all our different chemical modifications in the context of a second open reading frame, we replicated experiments previously conducted using luciferase mRNA, with human G-CSF mRNA. […] The mutant T7 polymerase was obtained commercially (Durascribe® T7 Transcription kit (Cat. No. DS010925) (Epicentre®, Madison, Wis.).
# (§3) The modified RNA in Tables 45 and 46 were transfected in vitro in HeLa cells or added to rabbit reticulysates (250 ng of modified mRNA) as indicated. […] In Table 45, “NT” means not tested.
row,Compound,Protein (G-CSF; HeLa)
1,O=c1[nH]cc([C@@H]2O[C@H](CO)[C@@H](O)[C@H]2O)c(=O)[nH]1 [pseudouridine (Y)],+
2,N^6-methyladenosine (m^6A),−
3,O=c1ccn([C@@H]2O[C@H](CO)[C@@H](O)[C@H]2O)c(=S)[nH]1 [2-thiouridine (s^2U)],+
4,O=c1[nH]c(=S)ccn1[C@@H]1O[C@H](CO)[C@@H](O)[C@H]1O [4-thiouridine (s^4U)],+

# Same assay, conditions: Table 48 non-naturally occurring
row,Compound,Protein (G-CSF; HeLa)
1,COC(=O)C=Cc1cn([C@@H]2O[C@H](CO)[C@@H](O)[C@H]2O)c(=O)[nH]c1=O [5-(2-carbomethoxyvinyl) Uridine],−
2,5-Br-Uridine [Compound 5-Br-Uridine],+

# Same assay, conditions: fully modified G-CSF mRNA transfected in HeLa cells, ELISA
row,Compound,G-CSF protein (pg/ml) HeLa cells
1,O=c1ccn([C@@H]2O[C@H](CO)[C@@H](O)[C@H]2O)c(=S)[nH]1 [2-thiouridine],"417,273 pg/ml"
2,O=c1[nH]c(=S)ccn1[C@@H]1O[C@H](CO)[C@@H](O)[C@H]1O [4-thiouridine],"107,273 pg/ml"
3,COc1cn([C@@H]2O[C@H](CO)[C@@H](O)[C@H]2O)c(=O)[nH]c1=O [5-methoxyuridine],"1,715,909 pg/ml"

# System: rabbit reticulysates
# Assay: G-CSF expression in rabbit reticulysates (ELISA)
# Assay type: biochemical
# Conditions: 250 ng modified G-CSF mRNA in rabbit reticulysates
# Method: as §2, §3
row,Compound,G-CSF protein (pg/ml) Rabbit reticulysates cells
1,O=c1ccn([C@@H]2O[C@H](CO)[C@@H](O)[C@H]2O)c(=S)[nH]1 [2-thiouridine],"18,375 pg/ml"
2,O=c1[nH]c(=S)ccn1[C@@H]1O[C@H](CO)[C@@H](O)[C@H]1O [4-thiouridine],"52,375 pg/ml"
3,COc1cn([C@@H]2O[C@H](CO)[C@@H](O)[C@H]2O)c(=O)[nH]c1=O [5-methoxyuridine],"201,750 pg/ml"

# — US20130123481A1, “MODIFIED NUCLEOSIDES, NUCLEOTIDES, AND NUCLEIC ACIDS, AND USES THEREOF” (MODERNA THERAPEUTICS, priority 2011, published 2013)
